Patent publication US11344635B2, “Compounds for use as iron (III) MRI contrast agents containing anionic pendents and ancillary groups” (The Research Foundation for The State University of New York, priority 2018, dated 2022)

Columns and labels:
[1] = Phantom (in vitro) MR imaging: T1 and T2 relaxivity; assay type: physicochemical; conditions: for r1 / r1 with HSA: 37° C.
Procedure: Preparation of Samples for Phantom MR Imaging: Samples for phantom imaging experiments contained 50-500 μM complex, 20 mM HEPES and 100 mM NaCl. For samples containing Human Serum Albumin (HSA), 35 mg of HSA was added to these solutions. The pH of all solutions was adjusted to 7.0.
Phantom (in vitro) imaging at 4.7 T. MRI acquisitions were performed using a General Electric 4.7 T/33 cm horizontal bore magnet (GE NMR instruments, Fremont, Calif.) incorporating AVANCE digital electronics (Bruker BioSpec platform with ParaVision v 3.0.2 acquisition software, Bruker Medical, Billerica, Mass.). […] T1 relaxation rates (r1) were acquired utilizing a saturation recovery, spin-echo (SE) sequence with a fixed echo time (TE), 10 ms and repetition times (TR) ranging from 75 to 8000 ms. Signal intensities at each repetition time were sampled by taking the mean intensity within regions of interest (ROI's) using commercially available image processing software (Analyze 7.0, AnalyzeDirect, Overland, Kans.), and r1 and SMAX were calculated by nonlinear fitting of the equation using Matlab's Curve Fitting Toolbox (Matlab 7.0, MathWorks Inc., Natick, Mass.). The T1 relaxivity for each complex was then determined by obtaining the slope of the compound's molar concentration vs r1 via linear regression fitting of the data. Similarly, T2 relaxation rates (R2) were acquired using a multiecho, Carr-Purcell-Meiboom Gill (CPMG) SE sequence with a fixed TR of 2500 ms and TE times ranging from 15 to 300 ms, NEX) 2. R2 and SMAX were calculated as described above using the equation As before, the T2 relaxivity was determined by obtaining the slope of concentration vs r2 via linear regression fitting of the data.
Relaxivity values for Fe(TASO) with and without HSA measured at 4.7 T and 9.4 T, pH 7.2 and 37° C. compared to Gd(DTPA).

[2] = Log P octanol/water partition coefficient; assay type: physicochemical
[3] = Effective magnetic moment by Evans method; assay type: physicochemical; conditions: aqueous solution
Procedure: Magnetic moments. Samples for studies of magnetic moment by using the Evans method were prepared using a coaxial NMR insert which contained the diamagnetic standard of 5% t-butanol in D2O. The outer 5 mm NMR tube contained 5 mM paramagnetic complex with fixed concentrations; 4 mM, 8 mM, 40 mM, and 70 mM in presence of 5% t-butanol. The effective magnetic moment (μeff, BM) was calculated by using a modified Evans method for small molecules at 298 K (T).

[4] = Benzoate oxidation in the presence of peroxide and ascorbate (ROS assay); conditions: 50 μM complex, 50 μM H2O2, 50 μM ascorbate, pH 7.2
Procedure: Benzoate oxidation with 50 μM complex, 50 μM H2O2 and 50 μM ascorbate at pH 7.2. [Fe(EDTA)]^− oxidation is set at 100%.
It is desirable that the Fe(III) complex remain in the trivalent oxidation state and not be reduced by peroxide, superoxide, ascorbate or by glutathione at concentrations present in the extracellular medium of cells such as, for example, mammalian cells (e.g., human cells). Normally, a redox potential more negative than zero mV (<0 mV) versus NHE is sufficient. If the complex were to be reduced to Fe(II) and the Fe(II) complex and the complex has a positive redox potential versus NHE, reactive oxygen species may be produced. For example, [Fe(EDTA)]− has a redox potential of approximately 300 mV and produces ROS as shown by the assay in FIG. 7.

[5] = versus NHE; cited from earlier work
[6] = 4.7 T, pH 7.2, 37° C., without HSA
[7] = neutral pH, HEPES buffer, 4.7 Tesla MRI scanner
[8] = with human serum albumin, neutral pH, HEPES buffer, 4.7 Tesla

For CNC[C@H](O)[C@@H](O)[C@H](O)[C@H](O)CO.CNC[C@H](O)[C@@H](O)[C@H](O)[C@H](O)CO.O=C([O-])CN(CCN(CC(=O)[O-])CC(=O)O)CCN(CC(=O)[O-])CC(=O)O.[Gd+3] [Gd(DTPA), gadopentetate dimeglumine, reference compound], the “r1 4.7 T” value [1, 6] was 3.1 ± 0.31 mM⁻¹ s⁻¹, the “r2 4.7 T” value [1, 6] was 3.9 ± 0.39 mM⁻¹ s⁻¹ and the “r1 in HSA 4.7 T” value ([1]; in HSA, 4.7 T, pH 7.2, 37° C.) was 3.2 ± 0.32 mM⁻¹ s⁻¹. For the same compound, the “r2 in HSA 4.7 T” value ([1]; in HSA, 4.7 T, pH 7.2, 37° C.) was 4.0 ± 0.40 mM⁻¹ s⁻¹.
For O=P([O-])(O)CN1CCN(CP(=O)([O-])O)CCN(CP(=O)([O-])O)CC1.[Fe+3] [Fe(NOTP)], the r1 ([1]; FIG. 11, 4.7 Tesla) was 0.66 ± 0.01 mM⁻¹ s⁻¹, the “r1 with HSA” value ([1]; FIG. 11, with HSA, 4.7 Tesla) was 1.04 ± 0.06 mM⁻¹ s⁻¹ and the r1 [1, 7] was 0.66 mM⁻¹ s⁻¹. The “r1 with HSA” value [1, 8] was 1.0 mM⁻¹ s⁻¹, the “Log P octanol/water” value [2] was −2.02±0.30 and the “effective magnetic moment μeff” value [3] was 5.85±0.14 BM.
For O=C([O-])CN(CCN(CC(=O)[O-])CC(=O)[O-])CC(=O)[O-].[Fe+3] [[Fe(EDTA)]^−], the “Benzoate oxidation / ROS production (in words)” value [4] is given as “produces ROS”, the “Benzoate oxidation relative to [Fe(EDTA)]−” value ([4]; reference set at 100%) is given as 100% and the redox potential [5] is given as “approximately 300 mV”.
In the case of O=P([O-])(CN1CCN(CP(=O)([O-])c2ccccc2)CCN(CP(=O)([O-])c2ccccc2)CC1)c1ccccc1.[Fe+3] [Fe(TRAP-Ph)], the r1 [1, 7] is reported as 2.9 mM⁻¹ s⁻¹ and the “r1 with HSA” value [1, 8] is reported as 3.5 mM⁻¹ s⁻¹.
